Reference: patent publication US4575504A, “Thienothiazole derivatives” (Dr. Karl Thomae GmbH, priority 1982, dated 1986)
Counter-ions that a name gives are not always drawn.

Key:
intact anesthetized rat [1] = test: Effect on blood pressure and heart rate in the intact anesthetized rat after intravenous injection; assay type: in vivo; settings: 1.5 mg/kg i.v.
[2] = test system: postsynaptic α-adrenoceptors; test: Effect on postsynaptic α-adrenoceptors: increase in blood pressure in the spinal rat; assay type: in vivo; settings: dosage which increased arterial blood pressure by 30 mmHg, i.v.
Method: 3. Effect on postsynaptic α-adrenoceptors: Increase in blood pressure in the spinal rat Method: The increase in blood pressure occurring after the stimulation of postsynaptic α-adrenoreceptors is measured in the spinal rat. Description of test: Male rats weighing from 200 to 250 g were anesthetized (1.2 g/kg of urethane i.p., 1 mg/kg of atropine s.c.). Then the central canal of the spinal cord was opened up. The spinal cord was severed at C1, and the medulla oblongata and the brain were destroyed with a metal probe. The animals were artificially ventilated; a polyethylene catheter was secured in a jugular vein, and the blood pressure was recorded from an A. carotis by means of a Statham element on a Grass polygraph. The dosage (D30) which increased the arterial blood pressure by 30 mmHg was determined.

intact anesthetized rat [3] = test: Effect on blood pressure and heart rate in the intact anesthetized rat after intravenous injection; assay type: in vivo; settings: 3 mg/kg i.v.
Method: 1. Effect on blood pressure and heart rate Method: Changes in circulation after intravenous injection of the test substance were recorded in the intact anesthetized rat. Male rats weighing 200 g were anesthetized with pentobarbital (50 mg/kg i.p.). The animals breathed spontaneously through a tracheal cannula secured in position. The blood pressure was measured at an A. carotis using an electromechanical pressure transducer; the pulse wave triggered a tachograph which recorded the heart rate continuously. Both parameters were recorded on the polygraph. The test substance was injected into a V. jugularis through a catheter. The test substances, when administered at a dosage of 3 mg/kg i.v., produced a brief initial increase in blood pressure followed by a longer-lasting reduction in pressure.

[4] = Acute toxicity in mice after oral or intravenous administration; settings: mouse, in vivo, observation period 14 days
Method: The acute toxicity was determined in mice after oral or intravenous administration (observation period: 14 days): […]

[5] = test system: presynaptic α-adrenoceptors; test: Effect on presynaptic α-adrenoceptors: inhibition of electrically triggered tachycardia in the spinal rat; assay type: in vivo; settings: dosage which inhibits electrically induced tachycardia by 50%, i.v.
Source text: 2. Effect on presynaptic α-adrenoceptors: Inhibition of electrically triggered tachycardia Method: At the adrenergic nerve ending there is an autoregulating system for the relase of noradrenaline. The stimulation of presynaptic α-adrenoreceptors has an inhibiting effect on the release of noradrenaline and thus restricts adrenergic neurotransmission. Accordingly, if these "feedback receptors" are stimulated, the effect of a given adrenergic stimulation on the responding organ can be attenuated. In the electrically stimulated spinal rat, the tachycardia induced electrically in the heart is attenuated by substances with a presynaptic α-mimetic activity. Description of the test: Male rats weighing from 350 to 400 g were anesthetized with pentobarbital (50 mg/kg i.p.), vagotomized, treated with atropine (1 mg/kg s.c.) and fitted with a tracheal cannula. After enucleation of one eye, the orbits were pierced, the brain was destroyed, and a metal rod was pushed through the vertebral canal. The animals were artificially ventilated and pre-treated with gallamine (4 mg/kg i.v.). The metal rod used was 2.5 mm in diameter and was insulated (stove-enamelled). […] The blood pressure was measured at an A. carotis by means of an electromechanical pressure transducer. The pulse wave triggered a tachograph which continuously recorded the heart rate. Both signals were recorded on a multi-channel recorder.

| SMILES | Blood pressure, depressor phase (maximum value) (intact anesthetized rat [1]) [mm Hg] | Blood pressure, pressor phase (maximum value) (intact anesthetized rat [1]) | Lowering of heart rate (maximum value) (intact anesthetized rat [1]) [beats/minute] | Blood pressure-increasing activity, D30 [2] | Blood pressure, depressor phase (maximum value) (intact anesthetized rat [3]) [mm Hg] | Blood pressure, pressor phase (maximum value) (intact anesthetized rat [3]) | Lowering of heart rate (maximum value) (intact anesthetized rat [3]) [beats/minute] | LD50 at 336 h ([4]; oral) [mg/kg] | LD50 at 336 h ([4]; intravenous) [mg/kg] | Inhibition of electrically induced tachycardia, D50 [5] [μg/kg i.v.] |
| --- | --- | --- | --- | --- | --- | --- | --- | --- | --- | --- |
| Cl.Cl.Nc1nc2sc3c(c2s1)CCNCC3 [H, 2-Amino-6,7,8,9-tetrahydro-5H-thiazolo[4',5':5,4]thieno[2,3-d]azepine dihydrochloride] | -34 | +38 mm Hg | -100 | 0.36 mg/kg i.v. |  |  |  |  |  |  |
| CC(C)N1CCc2sc3nc(N)sc3c2CC1.Cl.Cl [Compound D, 2-amino-6,7,8,9-tetrahydro-7-isopropyl-5H-thiazolo[4',5':5,4]thieno[2,3-d]azepine dihydrochloride] |  |  |  |  | -20 | +23 mm Hg | -78 |  |  |  |
| CCCN1CCc2c(sc3nc(N)sc23)C1.Cl.Cl [F, 2-amino-5,6,7,8-tetrahydro-6-propyl-thiazolo[4',5':5,4]thieno[2,3-c]pyridine dihydrochloride] |  |  |  |  | -12 | +16 mm Hg | -65 | > 300 |  |  |
| Nc1nc2sc3c(c2s1)CCN(Cc1ccccc1)CC3 [B, 2-amino-7-benzyl-6,7,8,9-tetrahydro-5H-thiazolo[4',5':5,4]thieno[2,3d]azepine] |  |  |  |  | -25 |  | -95 |  |  |  |
| CCN1CCc2sc3nc(N)sc3c2CC1.Cl.Cl [A, 7-ethyl-2-amino-6,7,8,9-tetrahydro-5H-thiazolo[4',5':5,4]thieno[2,3-d]azepine dihydrochloride] |  |  |  | 145 μg/kg i.v. | -18 | +52 mm Hg | -90 | 320 | 34 | 290 |
| C=CCN1CCc2sc3nc(N)sc3c2CC1.Cl.Cl [C, 7-allyl-2-amino-6,7,8,9-tetrahydro-5H-thiazolo[4',5':5,4]thieno[2,3-d]azepine dihydrochloride] |  |  |  |  | -15 | +17 mm Hg | -150 |  |  |  |
| CCN1CCc2c(sc3nc(N)sc23)C1 [E, 6-ethyl-2-amino-5,6,7,8-tetrahydro-thiazolo[4',5':5,4]thieno[2,3c]pyridine dihydrochloride] |  |  |  |  | -29 | +30 mm Hg | -108 |  |  |  |
| CN1CCc2c(sc3nc(N)sc23)C1.Cl.Cl [G, 2-amino-5,6,7,8-tetrahydro-6-methyl-thiazolo[4',5':5,4]thieno[2,3-c]pyridine dihydrochloride] |  |  |  |  | -30 | +46 mm Hg | -95 |  |  |  |
